Data reported in article PMC9658586, “1,4-Naphthoquinone Motif in the Synthesis of New Thiopyrano[2,3-d]thiazoles as Potential Biologically Active Compounds” (Molecules, 2022).

Key:
Type in all cases: cell-based, human
Details in all cases: 10 μM, 48 h
A498/ Renal Cancer = test: NCI single-dose screen, A498
Description: (§1) Considering the results of previous studies of fused thiazolidinones and their analogs, a series of thiopyrano[2,3-d]thiazoles with naphthoquinone fragments in the structure were studied for their anticancer activity. Thus, synthesized thiopyranothiazole derivatives 3.5 and 3.6 were selected by the National Cancer Institute (NCI), U.S., for their anticancer activity at 10 μM concentration toward a panel of sixty cancer cell lines representing nine different types (leukemia, melanoma, lung, colon, CNS, ovarian, renal, prostate, and breast cancers) (Figures S13–S14). Selection for screening based on new derivatives’ ability to add diversity to the NCI small molecules collection and anticancer assays were performed according to the NCI guidelines and protocols previously described. The compounds were added at the mentioned concentration, and the cell cultures were incubated for 48 h. The results for each compound were reported as the growth percent (GP%) of treated cells compared with untreated control cells.
(§2) Anticancer in vitro assay was performed on the human tumor cell lines panel derived from nine neoplastic diseases by the protocol of the Drug Evaluation Branch, National Cancer Institute, Bethesda, MD, USA [44, 45, 46]. […] GP% was spectrophotometrically evaluated vs. controls not treated with test agents.

[1] = system: SNB-75/ Central Nervous System Cancer; test: NCI single-dose screen, SNB-75
Description: as §1, §2

SK-MEL-2/Melanoma = test: NCI single-dose screen, SK-MEL-2
Description: as §1, §2

COLO-205/ Colon Cancer = test: NCI single-dose screen, COLO-205
Description: as §1, §2

SK-MEL-5/Melanoma = test: NCI single-dose screen, SK-MEL-5
Description: Selection for screening based on new derivatives’ ability to add diversity to the NCI small molecules collection and anticancer assays were performed according to the NCI guidelines and protocols previously described. The compounds were added at the mentioned concentration, and the cell cultures were incubated for 48 h.
Anticancer in vitro assay was performed on the human tumor cell lines panel derived from nine neoplastic diseases by the protocol of the Drug Evaluation Branch, National Cancer Institute, Bethesda, MD, USA [44, 45, 46]. Tested compounds were added to the culture at a single concentration (10^−5 M), and the cultures were incubated for 48 h. […] GP% was spectrophotometrically evaluated vs. controls not treated with test agents.

MCF7/Breast Cancer = test: NCI single-dose screen, MCF7
Description: as §1, §2

LOX IMVI/Melanoma = test: NCI single-dose screen, LOX IMVI
Description: as §1, §2

UO-31/Renal Cancer = test: NCI single-dose screen, UO-31
Description: as §1, §2

MALME-3M/Melanoma = test: NCI single-dose screen, MALME-3M
Description: as §1, §2

Structure (SMILES) | Most Sensitive Cell Line Growth, % (A498/ Renal Cancer) (A498/ Renal Cancer) [%] | Most Sensitive Cell Line Growth, % (SNB-75/ Central Nervous System Cancer) [1] [%] | Most Sensitive Cell Line Growth, % (SK-MEL-2/Melanoma) (SK-MEL-2/Melanoma) [%] | Most Sensitive Cell Line Growth, % (COLO-205/ Colon Cancer) (COLO-205/ Colon Cancer) [%] | Most Sensitive Cell Line Growth, % (SK-MEL-5/Melanoma) (SK-MEL-5/Melanoma) [%] | Most Sensitive Cell Line Growth, % (MCF7/Breast Cancer) (MCF7/Breast Cancer) [%] | Most Sensitive Cell Line Growth, % (LOX IMVI/Melanoma) (LOX IMVI/Melanoma) [%] | Most Sensitive Cell Line Growth, % (UO-31/Renal Cancer) (UO-31/Renal Cancer) [%] | Most Sensitive Cell Line Growth, % (MALME-3M/Melanoma) (MALME-3M/Melanoma) [%]
COc1cccc2c1C(=O)c1c(O)c3c(c(O)c1C2=O)C[C@@](O)(C(=O)CO)C[C@@H]3O[C@H]1C[C@H](N)[C@H](O)[C@H](C)O1 [Doxorubicin, doxorubicin, reference compound] | −75.10 | −76.10 | −82.60 | −81.60 | −86.40 | – | – | – | –
O=C1C2=C(C(=O)c3ccccc31)C(CCc1ccccc1)c1sc(=O)[nH]c1S2 (stereo not drawn) [Compound 3.6, 11-Phenethyl-3,11-dihydro-2H-benzo[6,7]thiochromeno[2,3-d]thiazole-2,5,10-trione] | – | – | – | – | – | 58.83 | 57.17 | 51.76 | 45.25
